Experiment: refractive index (Na D-line) (dimensionless); xn = mol fraction of the nth substance listed
Conditions: 101 kPa, Liquid

CCn1cc[n+](C)c1.O=S(=O)([O-])C(F)(F)F [1-ethyl-3-methylimidazolium trifluoromethanesulfonate] + CCOC(C)=O
refractive index
Conditions	288.15 K	298.15 K	308.15 K	318.15 K	328.15 K
x1 = 0.04887	1.38327	1.37802	1.37297	1.3691	1.3631
x1 = 0.1503	1.39622	1.39151	1.3881	1.38476	1.38129
x1 = 0.2004	1.40093	1.39666	1.3944	1.3917	1.38772
x1 = 0.2998	1.40907	1.40499	1.40234	1.39937	1.39558
x1 = 0.399	1.41507	1.41144	1.40854	1.40604	1.4031
x1 = 0.5006	1.42038	1.41682	1.41415	1.41137	1.40906
x1 = 0.5977	1.42469	1.42133	1.4186	1.41549	1.41251
x1 = 0.6974	1.42874	1.42566	1.42254	1.41963	1.41671
x1 = 0.7962	1.43118	1.42823	1.42528	1.42239	1.41954
x1 = 0.8474	1.43242	1.4295	1.42662	1.42376	1.42094
x1 = 0.9011	1.43367	1.43075	1.42792	1.42471	1.42195
x1 = 0.9491	1.43467	1.43182	1.42903	1.42624	1.42352
